Results on two compounds are retold here after ChEMBL document CHEMBL1148587, “Imidazo[1,2-a]pyrimidines as functionally selective and orally bioavailable GABA(A)alpha2/alpha3 binding site agonists for the treatment of anxiety disorders” (J Med Chem, 2006).

Activity calls are given as the source filed them. No cut-off for these calls is given here.

Data set [1] has as its target T1, GABA-A receptor; alpha-2/beta-3/gamma-2 (Homo sapiens, UniProt P18507+P28472+P47869).
T1 sequence (P18507 whole entry): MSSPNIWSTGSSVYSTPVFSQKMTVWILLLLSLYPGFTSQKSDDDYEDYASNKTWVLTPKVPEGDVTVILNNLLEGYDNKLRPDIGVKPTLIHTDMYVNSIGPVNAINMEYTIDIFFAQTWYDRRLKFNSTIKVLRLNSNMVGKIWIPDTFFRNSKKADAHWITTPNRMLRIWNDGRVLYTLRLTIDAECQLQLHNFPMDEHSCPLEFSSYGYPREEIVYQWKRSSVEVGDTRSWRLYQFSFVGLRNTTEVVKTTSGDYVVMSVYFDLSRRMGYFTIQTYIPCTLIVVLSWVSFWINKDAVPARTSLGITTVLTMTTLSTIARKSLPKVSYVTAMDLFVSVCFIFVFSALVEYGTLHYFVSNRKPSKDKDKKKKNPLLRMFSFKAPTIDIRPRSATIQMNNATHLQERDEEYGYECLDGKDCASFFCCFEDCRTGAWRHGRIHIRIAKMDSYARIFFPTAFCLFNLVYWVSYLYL
T1 sequence (P28472 whole entry): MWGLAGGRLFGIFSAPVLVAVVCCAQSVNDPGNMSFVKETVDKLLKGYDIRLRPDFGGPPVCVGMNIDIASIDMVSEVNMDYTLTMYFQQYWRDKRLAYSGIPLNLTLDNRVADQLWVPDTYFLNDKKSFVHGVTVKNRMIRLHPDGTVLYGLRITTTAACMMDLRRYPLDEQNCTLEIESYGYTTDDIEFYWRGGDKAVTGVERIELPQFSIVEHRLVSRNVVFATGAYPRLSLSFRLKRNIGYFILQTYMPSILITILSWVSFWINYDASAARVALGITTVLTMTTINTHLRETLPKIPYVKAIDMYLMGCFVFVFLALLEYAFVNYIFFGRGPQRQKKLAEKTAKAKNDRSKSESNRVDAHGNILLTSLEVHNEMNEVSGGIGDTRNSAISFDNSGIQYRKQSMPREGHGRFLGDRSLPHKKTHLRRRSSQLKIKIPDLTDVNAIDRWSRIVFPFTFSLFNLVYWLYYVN
T1 sequence (P47869 whole entry): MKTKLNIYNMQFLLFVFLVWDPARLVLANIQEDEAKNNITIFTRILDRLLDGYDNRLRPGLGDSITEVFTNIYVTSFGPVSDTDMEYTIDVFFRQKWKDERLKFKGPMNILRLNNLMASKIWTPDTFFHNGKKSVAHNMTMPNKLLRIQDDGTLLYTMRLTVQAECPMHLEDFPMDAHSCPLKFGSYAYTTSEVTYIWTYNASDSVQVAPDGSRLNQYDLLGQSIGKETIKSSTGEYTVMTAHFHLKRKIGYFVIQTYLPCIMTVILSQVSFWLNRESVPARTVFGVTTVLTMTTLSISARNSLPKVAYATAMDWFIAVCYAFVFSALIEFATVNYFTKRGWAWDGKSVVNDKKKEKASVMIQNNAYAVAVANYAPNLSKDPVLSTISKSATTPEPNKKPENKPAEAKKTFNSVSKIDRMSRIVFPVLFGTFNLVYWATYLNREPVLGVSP
Nature of the data set: Displacement of [3H]-Ro15-1788 from human recombinant GABAA alpha2 in combination with beta3gamma2 expressed in L(tk-) cells. Format: cell-based. Background: Displacement assays read how much labelled ligand stays bound in the presence of the test substance.

For data set [2], the target named is GABA-A receptor; alpha-5/beta-3/gamma-2 (Homo sapiens) (UniProt P18507+P28472+P31644). Put plainly: Efficacy against human recombinant GABAA alpha5 in combination with beta3gamma2 expressed in L(tk-) cells by whole cell patch clamp method. Format: functional, cell-based.
The target of data set [3] is GABA-A receptor; alpha-3/beta-3/gamma-2 (Homo sapiens) (UniProt P18507+P28472+P34903). Put plainly: Efficacy against human recombinant GABAA alpha3 in combination with beta-3-gamma-2 expressed in L(tk-) cells by whole cell patch clamp method. The class given is functional, cell-based. A general note: The patch-clamp technique gives a direct electrical read-out from membranes.

The subject of data set [4] is Squirrel monkey. Put plainly: Anxiolytic activity in squirrel monkey conditioned emotional response test at 0.3 mg/kg, po. Format: functional, organism-based. Further details: dose 0.3 mg/kg. Conditions: Saimiri sciureus.
A further data set relates to Rattus norvegicus. Nature of the data set: Effect on activity impairment in rat chain pulling assay at 30 mg/kg, po. The class given is functional, organism-based. On the set-up: dose 30 mg/kg.
A short description of data set [5]: Half life in rat. Format: ADME, organism-based. The conditions noted are these: in vivo.
Data set [6] deals with Squirrel monkey. Nature of the data set: Anxiolytic activity in squirrel monkey conditioned emotional response test at 3 mg/kg, po. The class given is functional, organism-based. Further details: dose 3 mg/kg. Conditions: Saimiri sciureus.
A short description of data set [7]: Half life in dog. The class given is ADME, organism-based, Canis lupus familiaris. Conditions: in vivo.
Data set [8] has as its target T2, GABA-A receptor; alpha-3/beta-3/gamma-2 (Homo sapiens, UniProt P18507+P28472+P34903).
T2 sequence (P18507 whole entry): T1 sequence (P18507 whole entry)
T2 sequence (P28472 whole entry): T1 sequence (P28472 whole entry)
T2 sequence (P34903 whole entry): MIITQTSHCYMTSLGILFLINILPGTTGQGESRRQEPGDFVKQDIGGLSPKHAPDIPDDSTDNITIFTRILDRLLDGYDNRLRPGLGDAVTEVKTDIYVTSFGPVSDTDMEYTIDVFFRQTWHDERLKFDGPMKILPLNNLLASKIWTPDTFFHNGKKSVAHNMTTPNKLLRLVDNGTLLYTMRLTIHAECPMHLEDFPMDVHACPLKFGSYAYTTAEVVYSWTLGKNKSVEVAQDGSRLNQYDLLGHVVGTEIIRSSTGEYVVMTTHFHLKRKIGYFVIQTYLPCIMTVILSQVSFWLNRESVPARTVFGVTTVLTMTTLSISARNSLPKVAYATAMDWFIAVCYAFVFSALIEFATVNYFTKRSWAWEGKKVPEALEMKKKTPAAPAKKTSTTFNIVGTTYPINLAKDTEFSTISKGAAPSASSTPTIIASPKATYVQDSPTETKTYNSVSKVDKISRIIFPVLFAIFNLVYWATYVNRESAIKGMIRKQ
Put plainly: Displacement of [3H]Ro-151788 from human recombinant GABAA alpha3 in combination with beta3gamma2 expressed in L(tk-) cells. The class given is cell-based.

Data set [9] in a line: Oral bioavailability in dog. Conditions: in vivo. Format: ADME, organism-based, Canis lupus familiaris.
The nature of data set [10]: Plasma clearance in dog. The class given is ADME, organism-based, Canis lupus familiaris.
Data set [11] addresses T3, GABA-A receptor; alpha-1/beta-3/gamma-2 (Homo sapiens, UniProt P14867+P18507+P28472).
T3 sequence (P14867 whole entry): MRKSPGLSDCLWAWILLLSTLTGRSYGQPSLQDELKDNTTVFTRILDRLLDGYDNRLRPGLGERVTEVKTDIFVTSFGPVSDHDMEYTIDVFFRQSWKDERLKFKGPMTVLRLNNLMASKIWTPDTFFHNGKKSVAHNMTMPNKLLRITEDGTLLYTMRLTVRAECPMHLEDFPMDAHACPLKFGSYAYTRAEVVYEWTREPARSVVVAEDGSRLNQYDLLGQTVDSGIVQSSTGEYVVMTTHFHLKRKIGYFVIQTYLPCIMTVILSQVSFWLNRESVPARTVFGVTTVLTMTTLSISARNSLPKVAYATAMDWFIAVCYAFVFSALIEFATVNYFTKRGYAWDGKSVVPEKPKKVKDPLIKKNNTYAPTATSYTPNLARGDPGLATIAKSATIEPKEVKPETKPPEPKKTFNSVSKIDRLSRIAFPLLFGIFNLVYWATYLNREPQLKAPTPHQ
T3 sequence (P18507 whole entry): T1 sequence (P18507 whole entry)
T3 sequence (P28472 whole entry): T1 sequence (P28472 whole entry)
Put plainly: Displacement of [3H]-Ro15-1788 from human recombinant GABAA alpha1 in combination with beta-3-gamma-2 expressed in L(tk-) cells. The class given is cell-based.

By Ki is commonly meant the equilibrium dissociation constant of an inhibitor or competing ligand from its target. By half-life is commonly meant the time in which the quantity being followed falls by half. As usually defined, the bioavailability is the share of a dose that reaches the circulation, judged against a reference dose that is usually intravenous. Usually clearance stands for a measure of how efficiently the substance is removed, as volume per time. For `N#Cc1cc(F)ccc1-c1cc(-c2cnc3nc(C(F)(F)F)ccn23)ccc1F`, the Ki in data set [1] stood at 1 nM; in data set [8], 0.73 nM; in [11] it was 1.2 nM. The Efficacy in data set [2] came out at 2%; in data set [3] it was 25%. The result in the data set on Squirrel monkey [4] and with Squirrel monkey [6] was Active. Also, the outcome with Rattus norvegicus was inactive. Besides, the half-life in data set [5] was 438 min; in data set [7], 1920 min. For the same compound, the bioavailability in data set [9] is 29%. The clearance in data set [10] was determined as 2.9 mL/min/kg.

As for `CC(C)(O)c1ccn2c(-c3ccc(F)c(-c4cccnc4)c3)cnc2n1`, the Ki in [1] amounted to 3.7 nM; in data set [8], 4 nM; in data set [11], 0.85 nM. Also, the results for the Efficacy in data set [2] and in data set [3] were 20% and 57%, respectively. Moreover, the outcome in the data set on Squirrel monkey [4] and with Squirrel monkey [6] was Active. Besides, the result with Rattus norvegicus was inactive. The half-life in [5] was 102 min; in data set [7], 42 min. In [9], this compound had a bioavailability of 48%. In addition, the clearance in data set [10] is 8.2 mL/min/kg.
